EP2114888B1, “TRICYCLIC COMPOUNDS AND THEIR USE AS GLUCOCORTICOID RECEPTOR MODULATORS” (priority 2007, dated 2008)

Legend:
IL-6 = assay: Ex vivo LPS-stimulated human whole blood, IL-6 production; type: cell-based; settings: mean values
Method: (§1) Venous blood from human donors was collected as 10 ml aliquots in tubes containing sodium heparin (BD Vacutainer from Becton Dickinson and Company, Franklin Lakes, NY). Blood was added to sterile polystyrene round bottom 96-well tissue culture plates (Corning Costar) at 100 µl/well, omitting the outside wells. Media (RPMI Medium 1640 with L-glutamine, Invitrogen Corporation, Carlsbad, CA) was added to the blood in 90 µl aliquots for a total volume of 190 µl. Outside wells were filled with 200 µl of media. Blood was placed in a humidified 37°C incubator with 5% CO2 while compounds were prepared (nearly 60 minutes).
(§2) Compounds were prepared from 10 mM stock solutions in dimethylsulfoxide (DMSO, Sigma-Aldrich). […] Final DMSO and ethanol concentrations in the assay were 0.1 % and 1.5%. The samples were gently triturated twice to mix and replaced in the incubator. LPS stock (E. coli serotype 0111:B4, Sigma-Aldrich), stored in aliquots of 100 µg/ml in RPMI at -20°C, was diluted 1/50 in RPMI to make a working stock solution. After 60 minutes of incubation, 10 µl of the prepared LPS working stock was added to the blood to a final concentration of 100 ng/ml, omitting wells to be used as negative control. The samples were again gently triturated and the plates incubated overnight for 22 hours. Following incubation, the blood was centrifuged at 1500 x g for 5 minutes and the plasma removed to either freeze at -20°C or assay for cytokine release.
(§3) IL-1β, IFNγ,IL-6, and TNFα protein levels were measured using Meso Scale assay kits (Meso Scale Discovery, Gaithersburg, MD). Reagents were allowed to come to room temperature. Meso Scale plates were blocked with 30 µl of human plasma/serum assay diluent with gentle shaking for 60 minutes at room temperature. Plates were washed 3x with wash buffer (PBS, Invitrogen Corporation, with 0.05% Tween-20, Sigma-Aldrich). Calibrators for standard curves were prepared in human plasma/serum assay diluent as a 1/5 serial dilution to achieve final concentrations ranging from 50000 pg/ml to 3.2 pg/ml. Samples and calibrators were added at 20 µl/well, then incubated at room temperature with gentle shaking for 90 minutes. Plates were again washed 3 times with wash buffer. Detection antibody was diluted in human plasma/serum antibody diluent to 1 µg/ml and added to the plate at 20 µl/well. Plates were incubated as before for 60 minutes and washed again. Read Buffer T (4x) was diluted 1:1 with mqH2O to 2 times concentration and 150 µl added to each well. Plates were analyzed on the SECTOR Imager 6000 (Meso Scale Discovery) to generate raw signal values.
(§4) Individual values were compared to positive and negative controls (vehicle treated blood with LPS and vehicle treated blood without LPS, respectively) to generate % inhibition. Triplicate values were averaged for each donor. The values for two donors were averaged (only one donor was used for IL-1β) and graphed using 4-parameter fit curves in the GraFit 5.0.11 application.

IFNγ = assay: Ex vivo LPS-stimulated human whole blood, IFNγ production; type: cell-based; settings: mean values
Method: as §1, §2, §3, §4

IL-1β = assay: Ex vivo LPS-stimulated human whole blood, IL-1β production; type: cell-based; settings: one donor
Method: as §1, §2, §3, §4

[1] = tested on: house dust mite-induced BAL inflammatory cell influx; assay: House dust mite model of asthma; type: in vivo, Mice; settings: p.o., b.i.d., BAL fluid
TNFα = assay: LPS-induced serum TNFα suppression, 28-day repeat dose mouse model; type: in vivo, Swiss Webster female mice
Method: The compounds were weighed and suspended in a vehicle of 0.5% methylcellulose/0.025% tween 20 (Sigma-Aldrich, St. Louis, MO). Compound suspensions were homogenized using a Polytron PT-3100 tissue homogenizer to create a very fine suspension and were then sonicated for 10 minutes using a water bath sonicator. Aliquots of each suspension were made for daily dosing at 0.2 ml/dose. Swiss Webster female mice, 10-12 weeks old, 28-29 grams, (Taconic, Germantown, NY) were used in accordance with the guidelines of the Institutional Animal Care and Use Committee and in accordance with NIH guidelines on laboratory animal welfare. Mice were acclimated in the Pfizer animal facility for three to seven days prior to being utilized in a study. […] Each treatment group contained 5-10 mice. To establish a dosing regimen for the studies, a pilot pharmacodynamic time course experiment was conducted to quantify TNFα repression after a single ED80 dose.
Body weights were measured on the first and last day of each experiment. Blood samples were obtained after three weeks of dosing for a steady-state pharmacokinetic (PK) analysis. To assess compound effects on LPS-induced TNFα, all mice received an intraperitoneal injection of LPS (Salmonella typhosa, L-7895; Sigma-Aldrich, St. Louis,) 2.5 hr after the last dose on day 28. Mice were sacrificed 90 minutes after LPS administration. Serum samples were quantified for osteocalcin and TNFα using the multiplex assays (Linco Research, Inc, St. Charles, MO; Luminex 100, Austin, TX). Samples were diluted 1:20 and the assay was run according to manufacturer's instructions. The osteocalcin standard was purchased separately (Biomedical Technologies Inc., Stoughton, MA). Mice were fasted for 4 hours before serum was collected for TNFα, and osteocalcin levels. For each experiment, outliers were detected by calculating the number of standard deviations from the mean of the group. If the value being examined was more than 2.5 standard deviations from the mean, it was excluded from the rest of the calculations.
The individual mouse percent inhibition values were fit to a four-parameter logistic model using the dose mean for each group.
ED50 and ED80 values were obtained for the various endpoints using a four-parameter logistic fit. For compounds which were tested multiple times, ED50 and ED80 values were obtained using four-parameter logistic fits of the combined data from multiple experiments.

Cc1ncccc1NC(=O)c1ccc2c(c1)CC[C@@H]1C[C@@](O)(C(F)(F)F)CC[C@@]21Cc1ccccc1 [Example 1, (4βS,7R,8αR)-4β-benzyl-7-hydroxy-N-(2-methylpyridin-3-yl)-7-(trifluoromethyl)-4β,5,6,7,8,8α,9,10-octahydrophenanthrene-2-carboxamide]
inhibition at 0.000457247 µM (IL-6; 0.457247 nM): -1.37%
inhibition at 0.00137174 µM (IL-6; 1.371742 nM): 3.33%
inhibition at 0.00411523 µM (IL-6; 4.115226 nM): -1.07%
inhibition at 0.0123457 µM (IL-6; 12.34568 nM): -0.369%
inhibition at 0.037037 µM (IL-6; 37.03704 nM): -0.828%
inhibition at 0.111111 µM (IL-6; 111.1111 nM): 0.944%
inhibition at 0.333333 µM (IL-6; 333.3333 nM): 2.15%
inhibition at 1 µM (IL-6; 1000 nM): 8.05%
inhibition at 0.000457247 µM (IFNγ; 0.457247 nM): 16.9%
inhibition at 0.00137174 µM (IFNγ; 1.371742 nM): 19.8%
inhibition at 0.00411523 µM (IFNγ; 4.115226 nM): -3.18%
inhibition at 0.0123457 µM (IFNγ; 12.34568 nM): 26.7%
inhibition at 0.037037 µM (IFNγ; 37.03704 nM): 51%
inhibition at 0.111111 µM (IFNγ; 111.1111 nM): 60.6%
inhibition at 0.333333 µM (IFNγ; 333.3333 nM): 73.5%
inhibition at 1 µM (IFNγ; 1000 nM): 78.7%
inhibition at 0.000457247 µM (IL-1β; 0.457247 nM): 23.4%
inhibition at 0.00137174 µM (IL-1β; 1.371742 nM): 22.4%
inhibition at 0.00411523 µM (IL-1β; 4.115226 nM): 11.2%
inhibition at 0.0123457 µM (IL-1β; 12.34568 nM): 21.5%
inhibition at 0.037037 µM (IL-1β; 37.03704 nM): 38.2%
inhibition at 0.111111 µM (IL-1β; 111.1111 nM): 39.7%
inhibition at 0.333333 µM (IL-1β; 333.3333 nM): 57.8%
inhibition at 1 µM (IL-1β; 1000 nM): 53.5%
Eosinophils (% inhibition) ([1]; 0.1 mg/kg): 42%
Lymphocytes (% inhibition) ([1]; 0.1 mg/kg): 34%
Neutrophils (% inhibition) ([1]; 0.1 mg/kg): 29%
T-cells (% inhibition) ([1]; 0.1 mg/kg): 39%
Total cells (% inhibition) ([1]; 0.1 mg/kg): 22%
Eosinophils (% inhibition) ([1]; 1 mg/kg): 97%
Lymphocytes (% inhibition) ([1]; 1 mg/kg): 94%
Neutrophils (% inhibition) ([1]; 1 mg/kg): 97%
T-cells (% inhibition) ([1]; 1 mg/kg): 88%
Total cells (% inhibition) ([1]; 1 mg/kg): 72%
Eosinophils (% inhibition) ([1]; 10 mg/kg): 99%
Lymphocytes (% inhibition) ([1]; 10 mg/kg): 97%
Neutrophils (% inhibition) ([1]; 10 mg/kg): 100%
T-cells (% inhibition) ([1]; 10 mg/kg): 96%
Total cells (% inhibition) ([1]; 10 mg/kg): 83%
ED50 (TNFα; Mus musculus, 672 h, oral gavage, 28 days, LPS-induced serum TNFα): 0.46 mg/kg
ED80 (TNFα; Mus musculus, 672 h, oral gavage, 28 days, LPS-induced serum TNFα, read-out: TNFα Suppression (ED80 dose)): 1.82 mg/kg
Serum TNFα EAUC50 (AUC 0-4 hr) (TNFα; mice): 0.22 µg·h/mL
Serum TNFα EAUC80 (AUC 0-4 hr) (TNFα; mice): 0.33 µg·h/mL
